Assay results published in US8431589B2, “2,4-diaminopyrimidine derivatives” (Novartis AG, priority 2002, dated 2013).
One block for each molecule: values may come before it.

Columns and labels:
[1] = target: T1, human ZAP-70 protein tyrosine kinase (Homo sapiens, UniProt P43403); test: ZAP-70 kinase assay (homogenous, time-resolved FRET, LAT-11 substrate); type: biochemical; conditions: 4 μM ATP
T1 construct: purchased Upstate Biotechnology, Lake Placid, N.Y
T1 sequence (P43403 1-619): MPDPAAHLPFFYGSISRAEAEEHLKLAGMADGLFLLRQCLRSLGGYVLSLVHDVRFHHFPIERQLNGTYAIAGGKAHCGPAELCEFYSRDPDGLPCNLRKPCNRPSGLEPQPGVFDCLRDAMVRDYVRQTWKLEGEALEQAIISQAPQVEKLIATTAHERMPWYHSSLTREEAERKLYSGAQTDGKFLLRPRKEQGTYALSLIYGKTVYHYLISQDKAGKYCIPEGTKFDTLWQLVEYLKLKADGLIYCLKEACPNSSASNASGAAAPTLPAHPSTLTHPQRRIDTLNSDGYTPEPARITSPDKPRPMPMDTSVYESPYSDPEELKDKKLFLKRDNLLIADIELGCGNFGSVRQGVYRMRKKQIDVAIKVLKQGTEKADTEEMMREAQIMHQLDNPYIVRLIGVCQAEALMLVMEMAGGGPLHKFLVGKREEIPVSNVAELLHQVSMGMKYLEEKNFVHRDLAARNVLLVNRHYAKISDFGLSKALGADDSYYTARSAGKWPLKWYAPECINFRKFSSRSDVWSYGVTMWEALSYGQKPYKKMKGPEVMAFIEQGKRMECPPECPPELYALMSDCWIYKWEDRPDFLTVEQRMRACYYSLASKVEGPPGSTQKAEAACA
Excerpt: (§1) More particularly the compounds of the invention are active at the human ZAP-70, FAK and/or Syk protein tyrosine kinases.
(§2) ZAP-70, Lck and Syk are commercially available from Upstate Biotechnology, Lake Placid, N.Y.
Preparation of LAT-11 (SEQ ID NO:1): The peptide LAT-11 used as a substrate in the ZAP-70 kinase assay may be prepared as disclosed in Example 1A of WO 02/12275, the contents of which, particularly with reference to Example 1A, is incorporated herein by reference.
ZAP-70 Kinase assay: The activities of the agents of invention are determined in a homogenous ZAP-70 kinase assay based on time-resolved fluorescence resonance energy transfer. Briefly, 80 nM ZAP-70 are incubated with 80 nM Lck and 4 μM ATP in ZAP-70 kinase buffer (20 mM Tris, pH 7.5, 10 μM Na3VO4, 1 mM DTT, 1 mM MnCl2, 0.01% bovine serum albumin, 0.05% Tween 20) for 1 hour at room temperature in a siliconized polypropylene tube. Then, the selective Lck inhibitor PP2 (4-amino-5-(4-chloro-phenyl)-7-(t-butyl)pyrazolo[3,4-d]pyrimidine; Alexis Biochemicals) is added (final concentration 1.2 μM) and incubated for further 10 min. […] After 1 hour incubation at room temperature fluorescence is measured, e.g., on the Victor2 Multilabel Counter (Wallac) at 665 nm. […] The inhibition obtained in the presence of test compounds was calculated as percent inhibition of the high control. […]

[2] = target: T2, human Syk protein tyrosine kinase (Homo sapiens, UniProt P43405); test: Syk kinase assay (heterogenous DELFIA, poly(Glu, Tyr) substrate); type: biochemical; conditions: ATP 1 μM
T2 construct: purchased Upstate Biotechnology, Lake Placid, N.Y
Description: as §1, §2
Syk Kinase assay: The activities of the agents of invention are determined in a heterogenous Syk kinase assay based on the dissociation-enhanced lanthanide fluoroimmunoassay (DELFIA) technology. This method utilizes europium chelate-labelled anti-phosphotyrosine antibodies to detect phosphate transfer by Syk to a polymeric glutamic acid-tyrosine (Glu, Tyr) substrate coated onto microtiter plates as described (Braunwalder A F, Yarwood D R, Sills M A, Lipson K E. Measurement of the protein tyrosine kinase activity of c-src using time-resolved fluorometry of europium chelates. Anal. Biochem. 1996; 238(2):159-64). The amount of phosphorylation is then quantified with time-resolved, dissociation-enhanced fluorescence. Briefly, hundred μl of poly (Glu, Tyr) (4:1; 2 μg/ml in phosphate-buffered saline, PBS) are coated to ELISA plates overnight at room temperature. The poly (Glu, Tyr) solution is removed and 250 μl of 1% bovine serum albumin in PBS are added for one hour at room temperature. […] Fluorescence is determined at 615 nm (Victor2; Wallac). […] The inhibition obtained in the presence of test compounds was calculated as percent inhibition of the high control. […]

[3] = target: T3, recombinant hexahistidine-tagged human FAK kinase domain (Homo sapiens, UniProt Q05397); test: FAK assay (FRET, Biot-Y397 substrate); type: biochemical
T3 construct: the kinase domain of FAK (Met384-Gly706) from position 29 to 351; made in house; host or cells: baculovirus; Sf9 and ExpresSF+ insect cells
T3 sequence (Q05397 384-706): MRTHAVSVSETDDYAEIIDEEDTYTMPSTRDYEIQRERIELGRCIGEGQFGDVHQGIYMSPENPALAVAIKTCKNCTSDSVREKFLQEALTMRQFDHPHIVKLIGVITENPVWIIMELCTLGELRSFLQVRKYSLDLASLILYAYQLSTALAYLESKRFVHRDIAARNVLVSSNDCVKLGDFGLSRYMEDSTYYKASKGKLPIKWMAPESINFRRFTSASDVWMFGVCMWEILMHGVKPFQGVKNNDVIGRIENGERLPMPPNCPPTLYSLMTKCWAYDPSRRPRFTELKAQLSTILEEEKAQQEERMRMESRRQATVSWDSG
Description: All steps are performed in a 96-well black microtiter plate. Purified recombinant hexahistidine-tagged human FAK kinase domain is diluted with dilution buffer (50 mM HEPES, pH 7.5, 0.01% BSA, 0.05% Tween-20 in water) to a concentration of 94 ng/mL (2.5 nM). The reaction mixture is prepared by mixing 10 μL 5× kinase buffer (250 mM HEPES, pH 7.5, 50 μM Na3VO4, 5 mM DTT, 10 mM MgCl2, 50 mM MnCl2, 0.05% BSA, 0.25% Tween-20 in water), 20 μL water, 5 μL of 4 μM biotinylated peptide substrate (Biot-Y397) in aqueous solution, 5 μL of test compound in DMSO, and 5 μL of recombinant enzyme solution and incubated for 30 min at room temperature. The enzyme reaction is started by addition of 5 μL of 5 μM ATP in water and the mixture is incubated for 3 hours at 37° C. The reaction is terminated by addition of 200 μL of detection mixture (1 nM Eu-PT66, 2.5 μg/mL SA-(SL)APC, 6.25 mM EDTA in dilution buffer), and the FRET signal from europium to allophycocyanin is measured by ARVOsx+L (Perkin Elmer) after 30 min of incubation at room temperature. The ratio of fluorescence intensity of 665 nm to 615 nm is used as a FRET signal for data analysis in order to cancel the colour quenching effect by a test compound. The results are determined as percent inhibition of enzyme activity. […] IC50 values are determined by non-linear curve fit analysis using the OriginPro 6.1 program (OriginLab).

FAK = target: T4, FAK (Mus musculus, UniProt P34152); test: Phosphorylation levels of FAK at Tyr397 (sandwich ELISA) in 4T1 cells; type: cell-based; conditions: 1 h incubation, read-out: IC50, 50% reduction of phosphorylation level of FAK (Tyr397)
T4 construct: endogenous in cells; host or cells: mouse mammary carcinoma 4T1 cells
T4 sequence (P34152 whole entry): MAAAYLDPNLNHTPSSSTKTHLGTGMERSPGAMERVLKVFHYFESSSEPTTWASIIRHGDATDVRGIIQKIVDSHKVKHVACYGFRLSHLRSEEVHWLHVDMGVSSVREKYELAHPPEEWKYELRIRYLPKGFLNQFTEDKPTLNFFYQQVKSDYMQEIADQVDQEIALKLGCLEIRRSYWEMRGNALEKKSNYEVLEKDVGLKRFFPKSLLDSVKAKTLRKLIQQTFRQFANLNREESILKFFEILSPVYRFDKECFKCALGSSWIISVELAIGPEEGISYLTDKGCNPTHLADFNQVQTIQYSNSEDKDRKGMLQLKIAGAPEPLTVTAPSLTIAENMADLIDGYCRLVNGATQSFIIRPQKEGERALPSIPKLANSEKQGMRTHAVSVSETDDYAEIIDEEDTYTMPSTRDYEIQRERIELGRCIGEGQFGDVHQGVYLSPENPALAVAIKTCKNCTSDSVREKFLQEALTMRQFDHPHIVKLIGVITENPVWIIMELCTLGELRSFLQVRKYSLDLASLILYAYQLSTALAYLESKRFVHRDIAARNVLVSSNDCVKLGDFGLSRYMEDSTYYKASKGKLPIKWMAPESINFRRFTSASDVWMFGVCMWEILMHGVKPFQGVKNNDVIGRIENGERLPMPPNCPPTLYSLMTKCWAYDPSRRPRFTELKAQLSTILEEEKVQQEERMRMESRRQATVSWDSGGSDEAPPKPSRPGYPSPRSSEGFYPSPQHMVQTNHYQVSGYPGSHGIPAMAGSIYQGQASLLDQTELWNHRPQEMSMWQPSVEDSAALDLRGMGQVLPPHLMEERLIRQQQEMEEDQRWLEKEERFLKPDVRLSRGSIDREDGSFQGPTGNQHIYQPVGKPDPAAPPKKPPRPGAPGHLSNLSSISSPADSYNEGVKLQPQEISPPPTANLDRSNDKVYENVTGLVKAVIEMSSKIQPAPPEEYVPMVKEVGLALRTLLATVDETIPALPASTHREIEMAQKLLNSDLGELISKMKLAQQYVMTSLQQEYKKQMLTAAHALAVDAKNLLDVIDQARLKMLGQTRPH
Description: Phosphorylation levels of FAK at Tyr397 are quantified by the sandwich ELISA. Mouse mammary carcinoma 4T1 cells (1×10^5) are plated in wells of 96-well culture plates and incubated with or without various concentrations of a compound of formula I for 1 h in Dulbecco's modified eagle medium containing 10% FBS. The medium is removed and cells are lysed in 200 μL 50 mM Tris-HCl, pH 7.4, containing 1% NP-40, 0.25% sodium deoxycholate, 150 mM NaCl, 1 mM EDTA, 1 mM PMSF, 1 mM Na3VO4, 1 mM NaF, 1 μg/mL aprotinin, 1 μg/mL leupeptin and 1 μg/mL pepstatin. After centrifugation, the supernatants are subjected to a sandwich ELISA to quantify the phosphorylated FAK and total FAK. […] After washing with TBSN (20 mM Tris-HCl, pH 8.3, containing 300 mM NaCl, 0.1% SDS and 0.05% NP-40), total FAK is detected with 100 μL of 1 μg/ml anti-FAK polyclonal antibody (#65-6140, Upstate Biology Inc.), and phosphorylated FAK is detected with 100 μL of […] anti-phosphorylated FAK (Y397) antibody (Affinity BioReagents, #OPA1-03071) in BlockAce diluted at 1:10 with H2O. […] Absorbance at 405 nm is measured after 20 min incubation at room temperature. […]

[4] = system: Mouse mammary carcinoma 4T1 cells; test: Anchorage-independent tumor cell growth assay; type: cell-based; conditions: Ultra low Attachment plates, 48 h, read-out: IC50, 50% inhibition of growth
Description: Mouse mammary carcinoma 4T1 cells (5×10^3) are plated in 96-well Ultra low Attachment plates (#3474, Corning Inc.) in […] of Dulbecco's modified eagle medium containing 10% FBS. Cells are cultured for 2 h and inhibitors are added at various concentrations in a final concentration of 0.1% DMSO. After 48 h, cell growth is assayed with the cell counting kit-8 (Wako Pure Chemical), which uses a water soluble tetrazolium salt WST8. Twenty μL of the reagent is added into each well and cells are further cultured for 2 h. The optical density is measured at 450 nm. The concentration of compound causing 50% inhibition of growth may thus be determined.

melting point: 72 to 75 °C
Compound: COc1cc(Nc2nccc(Nc3cccc(C)c3S(N)(=O)=O)n2)cc(OC)c1OC [Example 3, 2-methyl-6-[2-(3,4,5-Trimethoxy-phenylamino)-pyrimidin-4-ylamino]-benzenesulfonamide]

IC50 [1]: 12 nM
Compound: COc1cc(Nc2nccc(Nc3cccc(OC)c3S(N)(=O)=O)n2)cc(OC)c1OC [Example 4, 2-Methoxy-6-[2-(3,4,5-trimethoxy-phenylamino)-pyrimidin-4-ylamino]-benzenesulfonamide]

IC50 [2]: 150 nM
Compound: Cc1cccc(Nc2ccnc(Nc3cccc(OCCn4ccnc4)c3)n2)c1S(N)(=O)=O [Example 128]

IC50 [3]: 15 nM
Compound: CNS(=O)(=O)c1ccccc1Nc1nc(Nc2cccc(C)c2)ncc1Br [Example 188]

IC50 (FAK): 440 nM
Compound: CNS(=O)(=O)c1cc(F)ccc1Nc1nc(Nc2cc(OC)c(OC)c(OC)c2)ncc1Br [Example 190]

IC50 (FAK): 43 nM
Compound: CNS(=O)(=O)c1ccccc1Nc1nc(Nc2ccc3cn[nH]c3c2)ncc1Br [Example 198]

IC50 [3]: 1 nM
Compound: CNS(=O)(=O)c1ccccc1Nc1nc(Nc2cc(OC)c(OC)c(OC)c2)ncc1C(F)(F)F [Example 208]

IC50 [4]: 16 nM
Compound: CNS(=O)(=O)c1ccccc1Nc1nc(Nc2cc(OC)c(OC)c(OC)c2)ncc1Cl [Example 213]
